The subject of assay [1] is hippocampus of hAPP-J20 AD and wild-type mice. The assay is described as follows: In vivo CX7C T7 phage library screen, sequencing of phage recovered from hippocampus. The arrangement: species or system mouse. The settings on record: for Frequency/%: hippocampus 30 min after i.v. phage library, high throughput sequencing of inserts; for Representation in sequenced phage pools, AD versus normal brain: 9-month AD mouse vs normal mouse hippocampus. On the procedure:
In vivo phage screening was conducted using a T7 phage library expressing random peptides with the composition of CXnC (C=cysteine; X=any amino acid; n=7). The mouse model used for this screening is the hAPP-J20 that expresses amyloid precursor protein (APP) with both the Swedish and Indiana mutations (Murrell et al., Science 254, 97-99. (1991); Mullan et al., Nat. Genet. 1, 345-347. (1992)). Peptides homing to the hippocampus of these mice was the focus because the hippocampal region is where the AB-related lesions and damage are most prevalent early on in the disease.
A CX7C phage library was intravenously injected into 9 month-old AD and wild-type (WT) littermate mice, and allowed to circulate for 30 min, after which mice were perfused with saline, brains were collected, and the hippocampal region was dissected and subjected to phage titration and high throughput sequencing of the phage inserts. A surprise result was that the number of phage recovered from the AD hippocampus samples was much higher than the number recovered from a similar screen on normal littermates of the AD mice (FIG. 1A). […] BBB leakage has also been reported in AD patients.
Parallel phage library screens were performed on a normal mouse and a 9-month old AD transgenic mouse (J20 hAPP tg mouse line, which expresses transgenic amyloid precursor protein with two disease-related mutations). The library was intravenously injected into anesthetized mice and the hippocampal area of the brain was collected 30 min after intravenous injection of the library, phage was isolated from the tissue samples and subjected to high throughput sequencing of the peptide-encoding inserts in the phage DNA. Table 1 list most abundantly represented peptide from the two kinds of brains, and all peptides with significant representation in the AD brain and absent or nearly absent in the normal brain are listed in Table 2. Two peptides, CASPRLSKC (SEQ ID NO: 3) and CESPLLSEC (SEQ ID NO: 11), from among the highest scoring ones were subjected to detailed studies as described below.
hAPP-J20 mice were intravenously injected with 1e10 pfu of a CX7C (wherein X is any amino acid) naïve phage library, in 100 μL of PBS. The library was allowed to circulate for 30 minutes, after which mice were anesthetized with 2.5% avertin and perfused with PBS intracardially. The brain was removed and the hippocampus was extracted and homogenized in LB-NP 40 (1%) and phage was processed as described (Teesalu et al., Methods Enzymol 503, 35-56 (2012)). The phages in the lysate were rescued by amplification in E. coli and peptide-encoding portion of the phage genome was sequenced using Ion Torrent high throughput sequencing.

The test system of the next assay is AD hippocampus. The experiment in a line: Homing of intravenously injected individual peptide-displaying phages. The assay is classed as in vivo, mouse. The settings on record: intravenously injected phage displaying the peptide. An excerpt: FIG. 1B relates to phage titration showing that about 5 times more phage were recovered from the AD hippocampus than from the normal control. In the sequencing, phages displaying the peptides code named CASP (SEQ ID NO: 3; CASPRLSKC), CES (SEQ ID NO: 11, CESPLLSEC), and DAG (SEQ ID NO: 102, CDAGRKQKC) dominated. Hippocampus from age-matched normal wild-type mouse brain was used as a control.

Assay [2] has as its system hAPP-J20 mouse brain (hippocampus). The settings on record: i.v., 30 min circulation, 9-month-old AD (hAPP-J20) vs normal/WT mice.
Procedure: The synthetic peptides were labeled with FAM and 100 nmol and were intravenously injected to 9-month old AD mice through the tail vein. The peptides were allowed to circulate for 30 min, after which the mice were perfused with 20 ml of PBS, the brains were collected and snap-frozen in OCT for sectioning. The peptides were detected by anti-FAM staining (green), nuclei were stained with DAPI (blue), and anti-CD31 was used to visualize blood vessels.
For peptide homing, mice were intravenously injected with 50 nmole peptide dissolved in PBS, and allowed to circulate for 30 min. Mice were then perfused intracardially with saline and all major organs were isolated and fixed in 4% paraformaldehyde (PFA) at pH 7.4 overnight. The organs were then washed with PBS and placed in graded sucrose solutions overnight before optimal cutting temperature compound (OCT) embedding. Ten-micro-meter-thick sections were cut and analyzed by immunostaining.
Frozen sections were permeabilized using PBS- 0.2% Triton™ X-100 (PBST), blocking was carried out using blocking buffer (5% BSA, 1% goat serum, 1% donkey serum in PBST. Primary antibodies were incubated in diluted (1%) blocking buffer overnight at dilutions 1/100 or 1/200 at 4° C., washed with PBST and incubated with secondary antibodies diluted 1/200 or 1/500 in 1% diluted buffer for 1 hour at room temperature, subsequently washed with PBST, counterstained with DAPI 1 μg/mL in PBS for 5 minutes, washed with PBS, mounted using aqueous mounting media (Vector Biolabs), and imaged using a confocal microscope (Zeiss LSM-710).
The target in the next assay is T1, recombinant human CTGF (Homo sapiens, UniProt P29279).
T1 construct: purchased Affymetrix 14-8503-80
T1 sequence (P29279 253-349 limits assumed): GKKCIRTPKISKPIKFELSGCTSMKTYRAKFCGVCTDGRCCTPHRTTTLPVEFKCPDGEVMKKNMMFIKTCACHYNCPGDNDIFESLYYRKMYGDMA
The experiment in a line: ELISA binding to recombinant CTGF. The settings on record: non-labeled DAG 0.5 mM. On the procedure: FIG. 10 is a graphical representation relating to identification of a receptor for DAG. DAG binds to recombinant CTGF. FAM-DAG was incubated on ELISA plate coated with recombinant human CTGF at two different peptide concentrations of the FAM peptide alone (light gray bars), or in the presence of non-labeled DAG (0.5 mM) (dark gray bars). […] DAG was also shown to colocalize with CTGF. FAM-DAG was intravenously injected in 9-month-old hAPP-J20 and WT mice, allowed to circulate for 30 minutes, after which mice were perfused, and the brains were fixed, sectioned and stained for FAM (green) and CTGF (red).
Human CTGF recombinant protein (Affymetrix Cat #14-8503-80) was incubated on Nunc low-binding plates at concentration of 10 μg/ml for overnight at 4° C. Excess protein in the plates was removed by washing with PBS-T (PBS with 0.005% Tween 20). Plates were blocked with 200 μl of 3% non-fat milk in PBS for 1 hour at room temperature and washed with PBS-T once. Biotin-labeled peptide (at different concentrations) in PBS was added to the plate for 2 hours at 37° C. For peptide inhibition, non-labeled DAG peptide (0.5 mM) was added 30 minutes prior to addition of labeled peptide. The plates were washed with 100 μl PBS-T for three times to remove excess peptide. The bound peptide was detected by incubating with 100 μl of Vectastain ABC™ reagent (Vector labs, Burlingame, Calif.) for 30 minutes. The plate was washed with 100 μl PBS-T three times. Next, 100 μl of o-phenylenediamine dihydrochloride (OPD) silver and gold substrate (Sigma-Aldrich) was added to the wells and incubated at room temperature until visible color was observed (˜30 min). Adding 50 μl of 1 M H2SO4 stopped the reaction and the plate was read at 495 nm (FlexStation™ 3 Reader, Molecular Devices, Sunnyvale, Calif., USA).
(An ELISA detects its analyte on a solid surface through an enzyme-linked reagent.)

The mark [3] stands for this setting: Alzheimer's mouse (9-month old J20 hAPP tg).

From patent publication US11571485B2, “Peptides and antibodies for detecting changes in alzheimer's disease brain and methods of use thereof” (Sanford Burnham Prebys Medical Discovery Institute, priority 2016, dated 2023) come the findings set out here.

Bridges are numbered along the chain shown (N, C = ends). FAM = fluorescein-amide / fluoresceinamine label

In assay [1] (Wild-type mouse), CADDGC [SEQ ID NO: 94] had a Frequency/% of 1.244%.

Take CARVKK [SEQ ID NO: 91]: the Frequency/% in assay [1] (Wild-type mouse) is 1.67%.

On to CASPRLSKC [SEQ ID NO: 3], for which the “Representation in sequenced phage pools, AD versus normal brain” value in assay [1] is “dominated”. In addition, the Frequency/% in assay [1] (setting [3]) is listed as 0.7226%. In the assay on AD hippocampus, the “Phage accumulation in normal brain” value is given as “no accumulation in normal brain” and the “Phage homing to AD hippocampus” value was “home to AD hippocampus with high specificity”. In addition, the “Homing of FAM-labeled peptide to hippocampus” value (from here on “Homing of FAM-labeled peptide”) in assay [2] is given as “homed to the dentate gyms of AD brain but not normal brain”.

CATPRDKRTC [SEQ ID NO: 87] registered a Frequency/% in assay [1] (Wild-type mouse) of 2.373%.

On to CELSQ [SEQ ID NO: 97], for which, in assay [1] (Wild-type mouse), the Frequency/% stood at 1.089%.

Take CEQVRQKRC [SEQ ID NO: 4]: in assay [1] (setting [3]), the Frequency/% was determined as 0.3956%.

On to CESPLLSEC [SEQ ID NO: 11], for which, in assay [1], the “Representation in sequenced phage pools, AD versus normal brain” value was “dominated”. The same substance registered a Frequency/% in assay [1] (setting [3]) of 0.316%. Further, in the assay with AD hippocampus, the “Phage accumulation in normal brain” value is “no accumulation in normal brain” and the “Phage homing to AD hippocampus” value is “home to AD hippocampus with high specificity”. Besides, the “Homing of FAM-labeled peptide” value in assay [2] is listed as “homed to the dentate gyms of AD brain but not normal brain”.

CKVRKSEGC [SEQ ID NO: 85]: the Frequency/% in assay [1] (Wild-type mouse) is reported as 3.559%.

For the substance CLSLD [SEQ ID NO: 88], in assay [1] (Wild-type mouse), the Frequency/% is on record as 2.286%.

With CLTDNEETC [SEQ ID NO: 7], the Frequency/% in assay [1] (setting [3]) was determined as 0.3341%.

Consider CNSKETSRC [SEQ ID NO: 5], for which the Frequency/% in assay [1] (setting [3]) was 0.3885%.

As for CRKQGEAKC [reference compound], in assay [2], the “Homing of FAM-labeled peptide” value is reported as “essentially no homing to the hippocampus of hAPP-J20 mice”.

Take CRKQPTNVC [SEQ ID NO: 92]: in assay [1] (Wild-type mouse), the Frequency/% came to 1.495%.

In assay [1] (Wild-type mouse), CRTPLNPRC [SEQ ID NO: 95] showed a Frequency/% of 1.171%.

Turning to CSDRRLIDC [SEQ ID NO: 90], the Frequency/% in assay [1] (Wild-type mouse) stood at 1.737%.

CSGDMETKC [SEQ ID NO: 89]: the Frequency/% in assay [1] (Wild-type mouse) was 1.846%.

With CSGKAQRGC [SEQ ID NO: 100], in assay [1] (setting [3]), the Frequency/% amounted to 0.3349%.

Regarding CSKTTE [SEQ ID NO: 2], in assay [1] (setting [3]), the Frequency/% amounted to 0.8549%.

CSPE [SEQ ID NO: 6] came in with a Frequency/% in assay [1] (setting [3]) of 0.3766%.

CSRTSKQAC [SEQ ID NO: 98] came in with a Frequency/% in assay [1] (Wild-type mouse) of 1.022%.

In assay [1] (Wild-type mouse), CSTNA [SEQ ID NO: 93] displayed a Frequency/% of 1.426%.

As for CTKTAK [SEQ ID NO: 10], the Frequency/% in assay [1] (setting [3]) is listed as 0.3191%.

On to CTREGNETC [SEQ ID NO: 96], for which the Frequency/% in assay [1] (Wild-type mouse) came to 1.098%.

Turning to CTVNGKRSC [SEQ ID NO: 99], in assay [1] (Wild-type mouse), the Frequency/% came out at 0.9707%.

CVPKGKLVC [SEQ ID NO: 84] came in with a Frequency/% in assay [1] (Wild-type mouse) of 4.678%.

Regarding CVPKGKLVLLSL [SEQ ID NO: 86], the Frequency/% in assay [1] (Wild-type mouse) is 2.377%.

Regarding “FAM-CASPRLSKC: fluorescein-amide (FAM)-labeled CASPRLSKC peptide ({FAM}-CASPRLSKC-NH2; cysteine pairing not given here)”, in assay [2], the “Homing of FAM-labeled peptide” value is recorded as “homed to AD, but not normal, hippocampus”.

On to “FAM-CESPLLSEC: fluorescein-amide (FAM)-labeled CESPLLSEC peptide ({FAM}-CESPLLSEC-NH2; cysteine pairing not given here)”, for which the “Homing of FAM-labeled peptide” value in assay [2] is “homed to AD, but not normal, hippocampus”.

For “FAM-DAG: Fluoresceinamine (FAM)-labeled synthetic DAG peptide ({FAM}-CDAGRKQKC-NH2; disulfide 1-9 (inferred); not fully specified)”, the “Inhibition of CTGF binding by unlabeled DAG” value with recombinant human CTGF is “Non-labeled DAG inhibited the binding of FAM-DAG”. In addition, the “Homing of FAM-labeled peptide” value in assay [2] is recorded as “specifically homed AD hippocampus”.

Regarding SSVDKL [SEQ ID NO: 9], in assay [1] (setting [3]), the Frequency/% is given as 0.3223%.
